Measured values published in the NIST ThermoML archive (doi:10.1016/j.jct.2016.02.009).

Assay: molar heat capacity at constant pressure
Conditions: 101.33 kPa, Small (less than 1 g) adiabatic calorimetry

CCCCCCCCCCn1cc[n+](C)c1.O=S(=O)([N-]S(=O)(=O)C(F)(F)F)C(F)(F)F
molar heat capacity at constant pressure [J/K/mol]
Conditions | Crystal 2 | Metastable crystal
58.65 K | – | 191.3
60 K | 190.4 | 194.8
60.11 K | 190.6 | –
60.78 K | – | 196.8
62.24 K | 196.1 | –
62.91 K | – | 202.2
64.38 K | 201.3 | –
65.05 K | – | 207.5
66.52 K | 206.5 | –
67.19 K | – | 212.7
68.65 K | 211.6 | –
69.32 K | – | 217.8
70 K | 214.9 | 219.4
70.79 K | 216.6 | –
71.56 K | – | 223.1
73.03 K | 221.9 | –
73.9 K | – | 228.4
75.37 K | 227.2 | –
76.24 K | – | 233.8
77.73 K | 232.5 | –
78.59 K | – | 239
80 K | 237.4 | 242.1
80.09 K | 237.6 | –
80.53 K | 238.8 | –
80.94 K | – | 244.2
81.02 K | – | 244.3
82.24 K | 242.3 | –
82.44 K | 242.6 | –
82.84 K | – | 248.2
83.3 K | – | 249.2
83.96 K | 245.9 | –
84.55 K | – | 251.8
85.68 K | 249.4 | –
86.26 K | – | 255.5
87.42 K | 253.1 | –
87.99 K | – | 259.2
89.16 K | 256.6 | –
89.72 K | – | 262.8
90 K | 258.5 | 263.4
90.91 K | 260.3 | –
91.45 K | – | 266.4
92.66 K | 263.9 | –
93.2 K | – | 270
94.42 K | 267.5 | –
94.95 K | – | 273.7
96.19 K | 271.1 | –
96.7 K | – | 277.2
97.97 K | 274.7 | –
98.47 K | – | 280.8
99.75 K | 278.1 | –
100 K | 278.7 | 283.9
100.23 K | – | 284.3
101.59 K | 281.8 | –
102.07 K | – | 288.2
103.5 K | 285.5 | –
103.96 K | – | 292
105.42 K | 289.1 | –
105.87 K | – | 295.9
107.35 K | 292.7 | –
107.77 K | – | 299.7
109.27 K | 296.4 | –
109.69 K | – | 303.6
110 K | 297.7 | 304.1
111.21 K | 299.9 | –
111.6 K | – | 307.4
113.14 K | 303.5 | –
113.52 K | – | 311.1
115.09 K | 307 | –
115.45 K | – | 314.9
117.03 K | 310.5 | –
117.37 K | – | 318.6
118.98 K | 314 | –
119.3 K | – | 322.3
120 K | 315.8 | 323.7
120.92 K | 317.4 | –
121.23 K | – | 326.1
122.88 K | 320.8 | –
123.16 K | – | 329.9
124.83 K | 324.3 | –
125.09 K | – | 333.6
126.79 K | 327.7 | –
127.03 K | – | 337.4
128.75 K | 331.1 | –
128.97 K | – | 341.2
130 K | 333.3 | 343.2
130.71 K | 334.5 | –
130.9 K | – | 345.1
132.67 K | 337.9 | –
132.84 K | – | 348.9
134.64 K | 341.3 | –
134.78 K | – | 352.7
136.6 K | 344.8 | –
136.72 K | – | 356.6
138.57 K | 348 | –
138.66 K | – | 360.6
140 K | 350.5 | 363.3
140.54 K | 351.4 | –
140.6 K | – | 364.4
142.51 K | 354.8 | –
